Experimental data as given in patent US20040086901A1, “Database for analyzing gene function and method of analyzing gene function by dspa” (priority 2000, published 2004).

Key:
Assay type in all cases: cell-based, mouse
[1] = test system: NIH3T3 cells overexpressing caspase-3; test: MTT cell viability, caspase-3 overexpressing cells vs parental line; settings: caspase-3 high-expressing cells / parental cell line, 3 to 4 days
How it was run: (§1)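 Sensitivity is expressed as the logarithm of the ratio of IC40 values between gene-overexpressing and parental NIH3T3 cells. IC40 comes from an MTT assay after 3–4 days of drug exposure, with absorbance read at 574 nm against 655 nm. Untreated wells served as 100% and cell-free wells as 0% controls.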

[2] = test system: NIH3T3 cells overexpressing m-calpain; test: MTT cell viability, m-calpain overexpressing cells vs parental line; settings: m-calpain high-expressing cells / parental cell line, 3 to 4 days
How it was run: as §1

[3] = test system: NIH3T3 cells overexpressing PKCalpha-KN; test: MTT cell viability, PKCalpha-KN overexpressing cells vs parental line; settings: 3 to 4 days
How it was run: as §1

[4] = test system: NIH3T3 cells overexpressing caspase-1; test: MTT cell viability, caspase-1 overexpressing cells vs parental line; settings: caspase-1 high-expressing cells / parental cell line, 3 to 4 days
How it was run: as §1

[5] = test system: NIH3T3 cells overexpressing N-ras; test: MTT cell viability, N-ras overexpressing cells vs parental line; settings: N-ras high-expressing cells / parental cell line, 3 to 4 days
How it was run: (§2)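 Stable NIH3T3 transfectants (cDNA in pRc-CMV-type vector, G-418-selected, high expressers picked by Western blot) and parental cells were seeded at 1×10^5 cells/ml into twofold serial drug dilutions and grown 3–4 days. MTT formazan was read at 574/655 nm, and log ratios of IC40 values were derived.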

[6] = test system: NIH3T3 cells overexpressing PDGF-R; test: MTT cell viability, PDGF-R overexpressing cells vs parental line; settings: PDGF-R high-expressing cells / parental cell line, 3 to 4 days
How it was run: as §2

[7] = test system: NIH3T3 cells overexpressing cystatin E; test: MTT cell viability, cystatin E overexpressing cells vs parental line; settings: cystatin E high-expressing cells / parental cell line, 3 to 4 days
How it was run: as §2

[8] = test system: NIH3T3 cells overexpressing HSP4O; test: MTT cell viability, HSP4O overexpressing cells vs parental line; settings: HSP4O high-expressing cells / parental cell line, 3 to 4 days
How it was run: as §2

[9] = test system: NIH3T3 cells overexpressing HNF3b; test: MTT cell viability, HNF3b overexpressing cells vs parental line; settings: HNF3b high-expressing cells / parental cell line, 3 to 4 days
How it was run: as §1

[10] = test system: NIH3T3 cells overexpressing CBP8; test: MTT cell viability, CBP8 overexpressing cells vs parental line; settings: CBP8 high-expressing cells / parental cell line, 3 to 4 days
How it was run: as §2

[11] = test system: NIH3T3 cells overexpressing p38-DN; test: MTT cell viability, p38-DN overexpressing cells vs parental line; settings: p38-DN high-expressing cells / parental cell line, 3 to 4 days
How it was run: as §1

[12] = test system: NIH3T3 cells overexpressing CaMKIIa; test: MTT cell viability, CaMKIIa overexpressing cells vs parental line; settings: CaMKIIa high-expressing cells / parental cell line, 3 to 4 days
How it was run: as §1

[13] = test system: NIH3T3 cells overexpressing Ki-ras; test: MTT cell viability, Ki-ras overexpressing cells vs parental line; settings: Ki-ras high-expressing cells / parental cell line, 3 to 4 days
How it was run: as §2

[14] = test system: NIH3T3 cells overexpressing caspase-2; test: MTT cell viability, caspase-2 overexpressing cells vs parental line; settings: caspase-2 high-expressing cells / parental cell line, 3 to 4 days
How it was run: as §2

[15] = test system: NIH3T3 cells overexpressing HNF4; test: MTT cell viability, HNF4 overexpressing cells vs parental line; settings: HNF4 high-expressing cells / parental cell line, 3 to 4 days
How it was run: as §1

[16] = test system: NIH3T3 cells overexpressing coup; test: MTT cell viability, coup overexpressing cells vs parental line; settings: coup high-expressing cells / parental cell line, 3 to 4 days
How it was run: as §2

[17] = test system: NIH3T3 cells overexpressing Ha-ras; test: MTT cell viability, drug sensitivity of Ha-ras overexpressing cells vs parental line; settings: Ha-ras high-expressing cells / parental cell line, 3 to 4 days
How it was run: as §1

[18] = test system: NIH3T3 cells overexpressing HNF1; test: MTT cell viability, HNF1 overexpressing cells vs parental line; settings: HNF1 high-expressing cells / parental cell line, 3 to 4 days
How it was run: as §1

[19] = test system: NIH3T3 cells overexpressing p16/INK4A; test: MTT cell viability, p16/INK4A overexpressing cells vs parental line; settings: p16/INK4A high-expressing cells / parental cell line, 3 to 4 days
How it was run: as §2

[20] = test system: NIH3T3 cells overexpressing Regucalcin; test: MTT cell viability, Regucalcin overexpressing cells vs parental line; settings: Regucalcin high-expressing cells / parental cell line, 3 to 4 days
How it was run: as §2

[21] = PKCalpha-KN (first of two lines) high-expressing cells / parental cell line
[22] = PKCalpha-KN (second of two lines) high-expressing cells / parental cell line

Compound | logarithmic value of ratio of IC40 values [1] | logarithmic value of ratio of IC40 values [2] | logarithmic value of ratio of IC40 values [3, 21] | logarithmic value of ratio of IC40 values [3, 22] | logarithmic value of ratio of IC40 values [4] | logarithmic value of ratio of IC40 values [5] | logarithmic value of ratio of IC40 values [6] | logarithmic value of ratio of IC40 values [7] | logarithmic value of ratio of IC40 values [8] | logarithmic value of ratio of IC40 values [9] | logarithmic value of ratio of IC40 values [10] | logarithmic value of ratio of IC40 values [11] | logarithmic value of ratio of IC40 values [12] | logarithmic value of ratio of IC40 values [13] | logarithmic value of ratio of IC40 values [14] | logarithmic value of ratio of IC40 values [15] | logarithmic value of ratio of IC40 values [16] | logarithmic value of ratio of IC40 values [17] | logarithmic value of ratio of IC40 values [18] | logarithmic value of ratio of IC40 values [19] | also measured
C=C[C@]1(C)CC[C@@H](C(=C)C)C[C@H]1C(=C)C [b-elemene, β-elemene] | 0.28 | 0.00 | 0.07 | −0.07 | 0.11 | 0.07 | 0.00 | 0.07 | 0.02 | −0.07 | 0.06 | 0.05 | 0.16 | −0.10 | 0.26 | 0.33 | 0.52 | −0.26 | 0.02 | 0.12 | logarithmic value of ratio of IC40 values [20]: −0.09
ICE inhibitor-III [ICEin-3] | 0.13 | −0.06 | 0.12 | 0.33 | 0.11 | 0.38 | 0.20 | 0.07 | 0.11 | −0.09 | 0.18 | −0.11 | 0.00 | 0.30 | 0.04 | 0.00 | −0.11 | 0.32 | 0.20 | 0.15 | logarithmic value of ratio of IC40 values [20]: 0.00
sodium vanadate | 0.14 | −0.10 | 0.23 | 0.08 | −0.11 | −0.09 | 0.22 | 0.20 | −0.03 | 0.22 | 0.03 | −0.04 | −0.13 | −0.30 | 0.40 | −0.03 | −0.10 | −0.33 | 0.046 | 0.11 | logarithmic value of ratio of IC40 values [20]: 0.00
